Results from patent US20240327375A1, “SUBSTITUTED HETEROBICYCLIC DERIVATIVES AS NEGATIVE ALLOSTERIC MODULATORS OF MGLU7 RECEPTOR” (priority 2021, published 2024).
Where a name gives a salt, the structure may show the parent alone.

System: not given
Assay: not given
Conditions: not given
In the case of O=c1c2ccc(-c3cccc(C4CC4)c3)cc2cnn1-c1ccccn1 [1-22, 6-(3-Cyclopropylphenyl)-2-(pyridin-2-yl)phthalazin-1(2H)-one], the melting point is reported as 181 to 184 °C.

Molecular target: T1, human mGlu7 (Homo sapiens, UniProt Q14831)
T1 construct: expressed in transfected cells
T1 sequence (Q14831 35-922 isoform Q14831-2 limits assumed): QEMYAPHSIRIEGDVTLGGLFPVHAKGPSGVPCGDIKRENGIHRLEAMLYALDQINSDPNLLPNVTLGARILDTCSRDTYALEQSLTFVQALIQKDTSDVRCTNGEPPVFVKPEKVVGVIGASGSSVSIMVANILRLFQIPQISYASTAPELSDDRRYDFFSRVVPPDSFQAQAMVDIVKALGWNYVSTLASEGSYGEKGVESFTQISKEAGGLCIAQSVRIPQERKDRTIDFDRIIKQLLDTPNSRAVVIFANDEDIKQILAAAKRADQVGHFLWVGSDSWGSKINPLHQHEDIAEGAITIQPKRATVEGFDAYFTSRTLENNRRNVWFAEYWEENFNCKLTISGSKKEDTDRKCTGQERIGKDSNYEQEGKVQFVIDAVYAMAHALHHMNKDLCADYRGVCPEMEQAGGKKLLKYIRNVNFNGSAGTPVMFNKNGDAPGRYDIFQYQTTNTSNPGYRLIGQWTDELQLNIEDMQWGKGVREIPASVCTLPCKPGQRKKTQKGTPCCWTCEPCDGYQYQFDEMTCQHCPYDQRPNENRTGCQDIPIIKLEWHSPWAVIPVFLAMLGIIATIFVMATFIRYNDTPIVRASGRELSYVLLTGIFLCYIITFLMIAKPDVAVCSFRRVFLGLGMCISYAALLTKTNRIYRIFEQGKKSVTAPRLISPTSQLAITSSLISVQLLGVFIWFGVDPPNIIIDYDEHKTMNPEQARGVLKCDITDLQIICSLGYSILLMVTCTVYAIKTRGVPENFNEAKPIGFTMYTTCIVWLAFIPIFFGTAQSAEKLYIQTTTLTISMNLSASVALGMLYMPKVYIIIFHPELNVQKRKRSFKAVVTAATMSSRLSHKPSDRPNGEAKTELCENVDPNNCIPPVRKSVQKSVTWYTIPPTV
Assay: mGlu7 assay on HEK-expressing human mGlu7: fluorescent cell-based Ca2+ mobilization (FLIPR384), inhibition of EC80 L-AP4 response
Conditions: HEK-293 cells expressing hmGlu7, EC80 L-AP4 stimulation; mean of at least three independent experiments in duplicate; read-out: Ca^2+ Flux (mean IC50)
Description: mGlu7 Assay on HEK-Expressing Human mGlu7
The cDNA encoding the human metabotropic glutamate 7 receptor (hmGlu7), (accession number NM_181874.2, NCBI Nucleotide database browser), was subcloned into an expression vector containing also the hygromycin resistance gene. In parallel, the cDNA encoding a G protein allowing redirection of the activation signal to intracellular calcium flux was subcloned into a different expression vector containing also the Puromycin resistance gene. Transfection of both these vectors into HEK293 cells with PolyFect reagent (Qiagen) according to supplier's protocol, and hygromycin and puromycin treatment allowed selection of antibiotic resistant cells which had integrated stably one or more copies of the plasmids. Positive cellular clones expressing hmGlu7 were identified in a functional assay measuring changes in calcium fluxes in response to glutamate and L-AP4 or known mGlu7 orthosteric antagonists.
HEK-293 cells expressing hmGlu7 were maintained in media containing DMEM, Fetal Bovine Serum (10%), Glutamax™ (2 mM), penicillin (100 units/mL), streptomycin (100 μg/mL), geneticin (100 μg/mL) and hygromycin-B (40 μg/mL) and puromycin (1 μg/mL) at 37° C. with 5% CO2 in a humidified atmosphere.
Fluorescent Cell Based- Ca^+ Mobilization Assay Human mGlu7 HEK-293 cells were plated out 24 hours prior to a fluorescent cell-based calcium mobilization assay using FLIPR^384 assay (Molecular Device, Sunnyvale, CA, USA) in black-walled, clear-bottomed, poly-L-ornithine-coated 384-well plates at a density of 25,000 cells/well in a glutamine/glutamate free DMEM medium containing fetal bovine serum (10%), penicillin (100 units/mL), streptomycin (100 μg/mL) and doxycyline (1 μg/ml) at 37° C. with 5% CO2 in a humidified atmosphere.
On the day of the assay, the medium was aspirated and the cells were loaded with a 3 μM solution of Fluo4-AM (LuBioScience, Lucerne, Switzerland) in 0.03% pluronic acid. After 1 hour at 37° C./5% CO2, the non incorporated dye was removed by washing cell plate with the assay buffer. All assays were performed in a pH 7.4 buffered-solution containing 20 mM HEPES, 143 mM NaCl, 6 mM KCl, 1 mM MgSO4, 1 mM CaCl2, 0.125 mM sulfinpyrazone and 0.1% glucose.
After 10 s of basal fluorescence recording, various concentrations of the compounds of the invention were added to the cells. Changes in fluorescence levels were first monitored for 180 s in order to detect any agonist activity of the compounds. Then the cells were stimulated by an EC80 L-AP4 concentration for an additional 110 s in order to measure inhibiting activities of the compounds of the invention. EC80 L-AP4 concentration is the concentration giving 80% of the maximal glutamate response.
The concentration-response curves of L-AP4 or representative compounds of the present invention were generated using the Prism GraphPad software (Graph Pad Inc, San Diego, USA). The curves were fitted to a four-parameter logistic equation: […]
allowing determination of IC50 values.
The Table 3 below represents the mean IC50 obtained from at least three independent experiments of selected molecules performed in duplicate.
O=c1c2ccc(-c3cccc4c3ccn4C3CC3)cc2cnn1-c1ncccn1 [1-48] showed an IC50 of 0.1 to 1 µM. In the case of COc1cccc(-c2ccc3c(=O)n(-c4ncc(F)cn4)ncc3c2)c1C [1-62], the IC50 is reported as < 0.1 µM. In the case of COc1cccc(-c2ccc3c(=O)n(-c4ncc(NC5CCC(O)C5)cn4)ncc3c2)c1C (stereo not shown) [1-87], the IC50 is reported as < 0.1 µM. For O=c1c2ccc(-c3cccc(C4CC4)c3)cc2cnn1-c1ccccn1 [1-22, 6-(3-Cyclopropylphenyl)-2-(pyridin-2-yl)phthalazin-1(2H)-one], the IC50 was 0.1 to 1 µM. COc1cccc(-c2ccc3c(=O)n(-c4ccc(NC(=O)[C@@H](N)C(C)C)cn4)ncc3c2)c1C [1-98, (S)-2-Amino-N-(6-(6-(3-methoxy-2-methylphenyl)-1-oxophthalazin-2(1H)-yl)pyridin-3-yl)-3-methylbutanamide hydrochloride] showed an IC50 of 0.1 to 1 µM. Work on CC(=O)c1ccc(-n2ncc3cc(-c4ccc(C)cc4C)ccc3c2=O)cc1 [1-12] yielded an IC50 of 0.1 to 1 µM. COc1cccc(-c2ccc3c(=O)n(-c4ncc(N5CCSCC5)cn4)ncc3c2)c1C [1-78] showed an IC50 of 0.1 to 1 µM. In the case of COc1cccc(-c2ccc3c(=O)n(-c4ncc(N5CCC(O)C5)cn4)ncc3c2)c1C (stereo not shown) [1-65], the IC50 is reported as < 0.1 µM. In the case of O=c1c2ccc(-c3ccc(F)c(N4CCC4)c3)cc2cnn1-c1ccccn1 [1-51], the IC50 is reported as 1 to 10 µM. Work on COc1cccc(-c2ccc3c(=O)n(CCN4CCOCC4)ncc3c2)c1C [1-66] yielded an IC50 of 0.1 to 1 µM. For Cc1ccc(-c2ccc3c(=O)n(-c4ccccn4)ncc3c2)c(C)c1 [1-10], the IC50 was < 0.1 µM. In the case of CN1CCc2c(-c3ccc4c(=O)n(-c5ncccn5)ncc4c3)cccc21 [1-44], the IC50 is reported as < 0.1 µM. Compound CC(F)(F)c1cccc(-c2ccc3c(=O)n(-c4ccccn4)ncc3c2)c1 [1-39] has an IC50 of 0.1 to 1 µM. In the case of COc1cccc(-c2ccc3c(=O)n(-c4ncc(C)cn4)ncc3c2)c1C [1-54], the IC50 is reported as < 0.1 µM. For COc1cccc(-c2ccc3c(=O)n(-c4ncc(NC(C)(C)CN(C)C)cn4)ncc3c2)c1C [1-104], the IC50 was 0.1 to 1 µM. With O=c1c2ccc(-c3cccc(OC4CC4)c3Cl)cc2cnn1-c1ccccn1 [1-34] the IC50 was < 0.1 µM. In the case of COCC(C)(C)Nc1cnc(-n2ncc3cc(-c4cccc(OC)c4C)ccc3c2=O)nc1 [1-109], the IC50 is reported as < 0.1 µM. For COc1cccc(-c2ccc3c(=O)n(-c4ncc(NCCn5cncn5)cn4)ncc3c2)c1C [1-106], the IC50 was < 0.1 µM. In the case of O=c1c2ccc(-c3cc(N4CCC4)ccn3)cc2cnn1-c1ccccn1 [1-53, 6-(4-(Azetidin-1-yl)pyridin-2-yl)-2-(pyridin-2-yl)phthalazin-1(2H)-one], the IC50 is reported as 1 to 10 µM. With CCn1ncc2cc(-c3cccc(N4CCC4)c3)ccc2c1=O [1-11, 6-(3-(Azetidin-1-yl)phenyl)-2-ethylphthalazin-1(2H)-one] the IC50 was < 0.1 µM. COc1cccc(-c2ccc3c(=O)n(-c4ncccn4)ncc3c2)c1 [1-31] gave an IC50 of 0.1 to 1 µM. In the case of CN1CCc2c(-c3ccc4c(=O)n(-c5ccccn5)ncc4c3)cccc21 [1-37], the IC50 is reported as < 0.1 µM. For COc1cccc(-c2ccc3c(=O)n(-c4ccc(SC)cn4)ncc3c2)c1C [1-67], the IC50 was 0.1 to 1 µM. In the case of Cc1c(OC2CC2)cccc1-c1ccc2c(=O)n(-c3ncccn3)ncc2c1 [1-43], the IC50 is reported as 0.1 to 1 µM. With O=c1c2ccc(-c3cccc(OC(F)F)c3)cc2cnn1-c1ccccn1 [1-38] the IC50 was < 0.1 µM. With COc1cccc(-c2ccc3c(=O)n(-c4ncc(NCC(C)(C)O)cn4)ncc3c2)c1C [1-88] the IC50 was < 0.1 µM. Work on COc1cccc(-c2ccc3c(=O)n(C4CCOCC4)ncc3c2)c1C [1-60] yielded an IC50 of 0.1 to 1 µM. With COc1cccc(-c2ccc3c(=O)n(-c4ccc(S(C)(=N)=O)cn4)ncc3c2)c1C (stereo not shown) [1-91] the IC50 was < 0.1 µM. With COc1cccc(-c2ccc3c(=O)n(-c4ncc(NCC(C)(C)OC)cn4)ncc3c2)c1C [1-110, 6-(3-Methoxy-2-methylphenyl)-2-(5-((2-methoxy-2-methylpropyl)amino)pyrimidin-2-yl)phthalazin-1(2H)-one] the IC50 was 0.1 to 1 µM. For COc1cccc(-c2ccc3c(=O)n(-c4ccc(C(=O)N5CCC(O)C5)cn4)ncc3c2)c1C (stereo not shown) [1-93], the IC50 was < 0.1 µM. For COc1cnc(-n2ncc3cc(-c4cccc(OC)c4C)ccc3c2=O)nc1 [1-55], the IC50 was < 0.1 µM. With COc1cccc(-c2ccc3c(=O)n(-c4ccc(C(=O)NCC(C)(C)O)cn4)ncc3c2)c1C [1-92] the IC50 was < 0.1 µM. For COc1cccc(-c2ccc3c(=O)n(-c4ncc(NC5CCN(C)C5)cn4)ncc3c2)c1C (stereo not shown) [1-107], the IC50 was < 0.1 µM.
